# Measurements: patent publication US8053627B2, “Methods for treating demyelination disorders” (University of Chicago, priority 2005, dated 2011)
# Legend:
# [1] = system: myelinating oligodendrocytes in the CNS; assay: Ectopic CNS expression of IFN-γ during development (released from doxycycline at E14), wild-type or PERK+/− background; assay type: in vivo, mice
# Source text: To study the effect of INF-γ on the myelination of oligodendrocytes during mouse development, transgenic mice that allow for temporally regulated delivery of IFN-γ to the CNS using the tetracycline (tet) controllable system (Lin, et al. (2004) J. Neurosci. 24: 10074-10083) were generated. To drive tTA expression in astrocytes, the transcriptional regulatory region of the glial fibrillary acidic protein (GFAP) gene was chosen (Brenner, et al. (1994) J. Neurosci. 14: 1030-1037). GFAP/tTA mice were mated with TRE/IFN-γ mice to produce animals hemizygous for both transgenes. When these mice are maintained on doxycycline (DOX+), expression of the IFN-γ transgene is repressed (FIG. 10A); when the double transgenic mice are released from doxycycline (DOX−) INF-γ is expressed. For the purpose of these experiments, mice received doxycycline up to day 14 of development (E14), at which time the experimental animals (DOX−) stopped receiving doxycycline, while the control animals (DOX+) were continuously fed the dug. The mRNA for IFN-γ could be detected in the DOX− mice as early as 10 days after birth (data not shown).
# Real time PCR analysis was performed to determine the levels of expression of INF-γ, MHC-1, BIP, CHOP, and caspase 12. The primers for the PCR reactions for BIP, CHP and caspase 12 are given in example 1. The sense and antisense primers for INF-γ were […] (SEQ ID NO: 39) and […] (SEQ ID NO: 40), respectively; and the sense and antisense primers for MHC-1 were MHC-I sense primer: ATTCCCCAAAGGCCCATGT (SEQ ID NO: 1); and MHC-I antisense primer: […] (SEQ ID NO: 2).
# Western blot analysis was performed on the CNS of 14 day old mice to determine the expression of caspase-12 as described in Example 6.
# Brain and spinal cord tissue were analyzed using immunohistochemical methods as follows. Anesthetized mice were perfused through the left cardiac ventricle with 4% paraformaldehyde in 0.1M PBS. The half-saggital brains and transcervical spinal cord were removed, postfixed with paraformaldehyde, cryopreserved in 30% sucrose, embedded in OCT and frozen on dry ice. Frozen sections were cut in a cryostat at a thickness of 10 μm. Coronal sections at the fornix region of the corpus callosum corresponding to Sidman sections 241-251 were selected for use, and all comparative analyses were restricted to midline corpus callosum (Sidman, et al. (1971) Atlas of the Mouse Brain and Spinal Cord (Harvard Univ. Press, Cambridge, Mass.). For immunohistochemistry, frozen sections were treated with −20° C. acetone, blocked with PBS containing 10% NGS and 0.1% Triton X-100 and incubated overnight with the primary antibody diluted in blocking solution. Appropriate fluorochrome- or enzyme-labeled secondary antibodies (Vector Laboratories, Burlingame, Calif.) were used for detection. An antibody against CC1 (APC7, 1:50; EMD Biosciences, Inc., La Jolla, Calif.) was used as a marker for mature oligodendrocytes. Antibody against MBP (1:1000; Sternberger Monoclonals, Lutherville, Mass.) was used to verify the degree of myelination. Antibody against active-caspase-3 (1:50, Cell signaling Technology, Beverly, Mass.) was used as a marker for apoptotic cells. Fluorescent stained sections were mounted with Vectashield mounting medium with DAPI (Vector Laboratories) and visualized with a Zeiss Axioplan fluorescence microscope. Images were captured using a Photometrics PXL CCD camera connected to an Apple Macintosh computer using the Open Lab software suite. Immunopositive cells were quantified by counting positive cells within the median of the corpus callosum, confined to an area of 0.04 mm^2. Only those cells with nuclei observable by DAPI staining were counted. Each MBP immunostaining slide was scored on a scale of zero to four. A score of zero indicates complete demyelination, and a score of four indicates normal myelination in the corpus callosum of adult mice. […]
# [2] = system: Stat1; assay: Stat1 nuclear translocation assay in mixed primary oligodendrocyte cultures; assay type: cell-based, mice; conditions: 100 U/mL IFN-γ for 30 min, one hundred PLP positive cells counted
# Experimental: Mixed primary oligodendrocyte cultures were prepared as previously described (Baerwald et al., 2000). Briefly, brain tissue was harvested from 2-3-day-old newborn pups of PLP/SOCS1 and C57B1/6J matings. Because the litters contained transgenic and wild-type pups, the brain of each animal was processed individually, cultured separately, and later genotype matched. Each brain was digested separately using 0.25% trypsin and 10 μg/ml of DNAaseI (Invitrogen) in Dulbecco's modified Eagle's medium (DMEM) for 20 min at 37° C., and cells were cultured on separate poly-D-lysine-coated […] flasks (Sigma-Aldrich). The cultures were maintained with 10% fetal bovine serum DMEM at 37° C. with 5% CO2 for 12 days, and then switched to a defined medium containing […], 50 μg/ml of transferrin, 30 nM of selenium, 10 nM of biotin, 10 nM of progesterone, 15 nM of T3, 0.1% bovine serum albumin, and 1% ampicillin-streptomycin (Sigma-Aldrich). […] One hundred PLP positive cells were manually counted in both wild-type and PLP/SOCS1 cultures. […]
# The responsiveness of PLP/SOCS1 oligodendrocytes to IFN-γ was studied in primary mixed glial cultures. […] In contrast, Stat1 nuclear translocation was detected only in occasional PLP positive oligodendrocytes (6±2 cells) following IFN-γ stimulation (p<0.05).
# [3] = PERK+/− background, released from doxycycline at E14
# [4] = wild-type background, released from doxycycline at E14
substance,measurement,setting,value
IFN-γ: pleotropic cytokine secreted by activated T lymphocytes and natural killer cells; delivered to the CNS by transgene or added as recombinant protein,BIP expression relative to control levels,"[1]; CNS, PND 14, DOX− from E14",approximately 1.6 times
same,CHOP expression relative to control levels,"[1]; CNS, PND 14, DOX− from E14",~2 times
same,caspase-12 expression,"[1]; CNS, PND 14, DOX− from E14",strongly enhanced
same,state of myelination,"[1]; DOX− double transgenic mice, wild-type background",mildly hypomyelinated
same,decrease of oligodendrocyte numbers in the spinal cord (CC1),"[1]; PERK+/− background, 14-day-old",more than 50%
same,mice that died by post natal day (PND) 27,[1]; [3],more than 90%
same,mice that experienced tonic seizures,[1]; [3],approximately two-thirds
same,unmyelinated axons in the spinal cord,"[1]; PERK+/− mice expressing IFN-γ, 14-day-old",81%±14.9%
same,"TUNEL positive oligodendrocytes in the cervical spinal cord, PERK+/− relative to wild-type background",[1]; released from doxycycline at E 14,2.5 times
same,survival,[1]; [4],normal survival
same,unmyelinated axons in the spinal cord,[1]; [4],30%±12.9%
same,PLP positive oligodendrocytes with Stat1 nuclear translocation,[2]; PLP/SOCS1 cultures,6±2 cells
same,PLP positive oligodendrocytes with Stat1 nuclear translocation,[2]; wild-type cultures,96±3 cells
